Assay results from article PMC7756341, “Liposomal FRET Assay Identifies Potent Drug‐Like Inhibitors of the Ceramide Transport Protein (CERT)” (Chemistry (Weinheim an Der Bergstrasse, Germany), 2020).
Values joined by “and” are separate entries in the source; they are usually repeats but may differ in a detail not shown here. Equal entries are not always repeated.

Columns and labels:
HeLa cells [1] = assay: Sphingolipid content of treated HeLa cells by quantitative mass spectrometry; format: cell-based; details: for Cer16 / Cer18 / Cer20 / Cer22 / Cer24 / Cer24:1 / Cer total / S1P / SM16 / SM18 / SM20 / SM22 / SM24 / SM24:1 / SM total / Sph / ratio total SM/Cer: HeLa, 42h, single replicates; for Cer16 / Cer18 / Cer20 / Cer22 / Cer24 / Cer24:1 / Cer total / S1P / SM16 / SM18 / SM20 / SM22 / SM24 / SM24:1 / SM total / Sph: 500.000 cells per sample
Summary of the method: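 HeLa cells were plated in six-well plates at 177000 cells per well in DMEM containing 4mM L-glutamine, 10% FBS and 1% Penicillin-Streptomycin, then exposed to inhibitor. Harvested cells were adjusted to 500.000 per sample, extracted with methanol/chloroform (2:1) containing Cer17 and d31-SM16 internal standards, and quantified for ceramides and sphingomyelins by C8 reversed-phase HPLC coupled to ESI+ triple-quadrupole MS/MS.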

HeLa cells [2] = assay: Cellular localization of BODIPY-ceramide by confocal microscopy; format: cell-based; details: 10 µM inhibitor, 2 h
Procedure: 5.1 Cellular Localization of BODIPY-Ceramide
HeLa cells were seeded in 8 well chamber slides (ibidi µ-Slide 8 Well) in RPMI 1640 medium supplemented with 10% (v/v) heat‐inactivated FCS, 1 mM sodium pyruvate and 2 mM L-glutamine at 37 °C and 5% (v/v) CO2 in a humidified incubator. The day after, cells were incubated with inhibitors for 2 h at a concentration of 10 µM or left untreated by replacing the medium with fresh medium supplemented with the respective inhibitors. After 2 h of incubation, BODIPY FL C5-ceramide (Thermo Fisher) was added to a final concentration of 0,25 µM and imaging was immediately done using an LSM 780 laser scanning confocal microscope (Carl Zeiss). No additional wash steps were performed. After 1 h of incubation, DNA was counterstained using Hoechst 33342. For quantification of BODIPY-Ceramide trafficking, cells were transfected with pECFP-GalT the day before inhibitor incubation for the expression of an eCFP fusion of the human galactosyltransferase (GalT; amino acids 1-60), which localizes at the Golgi apparatus. After incubation with the respective inhibitors (see above), cells were imaged at 30 min post addition of BODIPY FL C5-ceramide. Mean BODIPY intensities of regions of interest surrounding eCFP-GalT-positive Golgi stacks were measured (40 cells per biological replicate, 4 biological replicates in total) using ImageJ software (Rasband, W.S., ImageJ, U. S. National Institutes of Health, Bethesda, Maryland, USA, https://imagej.nih.gov/ij/, 1997-2018) and divided by the total BODIPY intensity detected in the field of view. Quantification (Fig 10B) is expressed as normalized intensity ratio (GA/total).
Figure S10. A Uptake of BODIPY FL C5-ceramide to HeLa cells assessed by normalized fluorescence intensity B Distribution of BODIPY FL C5-ceramide by normalized fluorescence […]
(1 picture or pasted object on this page, not shown here)
Figure S11. BODIPY-Ceramide trafficking. Confocal images showing distribution of BODIPY FL C5-ceramide (green) and Golgi apparatus costaining (eCFP-GalT; blue) in HeLa cells pretreated with 10 µM of respective inhibitors or left untreated. Figures show representative images (n = 4 biological replicates with 40 cells per biological replicate); scale bars, 10 µm.

CC1=NN(c2ccc(C)c(C)c2)C(=O)/C1=N\Nc1cccc(-c2cccc(C(=O)O)c2)c1O [17C9, Eltrombopag]
effect on SM/Cer rate (HeLa cells [1]; HeLa cells): dramatically increased | effect on total sphingomyelin (HeLa cells [1]; HeLa cells, 48 hours, serum-reduced medium): no significant changes | Cer16 (HeLa cells [1]; 1 µM): 34,40 pmol/sample and 29,98 pmol/sample and 31,42 pmol/sample | Cer18 (HeLa cells [1]; 1 µM): 3,09 pmol/sample and 3,68 pmol/sample and 2,62 pmol/sample | Cer20 (HeLa cells [1]; 1 µM): 0,85 pmol/sample and 3,45 pmol/sample and 0,80 pmol/sample | Cer22 (HeLa cells [1]; 1 µM): 6,25 pmol/sample and 5,55 pmol/sample and 6,14 pmol/sample | Cer24 (HeLa cells [1]; 1 µM): 18,45 pmol/sample and 16,72 pmol/sample and 19,49 pmol/sample | Cer24:1 (HeLa cells [1]; 1 µM): 39,87 pmol/sample and 35,52 pmol/sample and 38,79 pmol/sample | Cer total (HeLa cells [1]; 1 µM): 102,91 pmol/sample and 96,34 pmol/sample and 97,82 pmol/sample | S1P (HeLa cells [1]; 1 µM): 1,15 pmol/sample and 1,32 pmol/sample and 1,00 pmol/sample | SM16 (HeLa cells [1]; 1 µM): 1737,34 pmol/sample and 1866,45 pmol/sample and 1725,36 pmol/sample | SM18 (HeLa cells [1]; 1 µM): 50,83 pmol/sample and 50,55 pmol/sample and 45,45 pmol/sample | SM20 (HeLa cells [1]; 1 µM): 17,12 pmol/sample and 16,70 pmol/sample and 15,18 pmol/sample | SM22 (HeLa cells [1]; 1 µM): 108,33 pmol/sample and 106,97 pmol/sample and 93,72 pmol/sample | SM24 (HeLa cells [1]; 1 µM): 172,22 pmol/sample and 163,43 pmol/sample and 147,49 pmol/sample | SM24:1 (HeLa cells [1]; 1 µM): 788,48 pmol/sample and 772,38 pmol/sample and 712,32 pmol/sample | SM total (HeLa cells [1]; 1 µM): 2874,32 pmol/sample and 2976,47 pmol/sample and 2739,52 pmol/sample | Sph (HeLa cells [1]; 1 µM): 3,11 pmol/sample and 2,70 pmol/sample and 4,01 pmol/sample | ratio total SM/Cer (HeLa cells [1]; 1 µM): 29,4 and 28,9 and 28,4 | Cer16 (HeLa cells [1]; 2.5 µM): 32,36 pmol/sample and 33,19 pmol/sample and 28,45 pmol/sample | Cer18 (HeLa cells [1]; 2.5 µM): 3,43 pmol/sample and 3,27 pmol/sample and 2,51 pmol/sample | Cer20 (HeLa cells [1]; 2.5 µM): 2,29 pmol/sample and 1,23 pmol/sample and 0,90 pmol/sample | Cer22 (HeLa cells [1]; 2.5 µM): 6,89 pmol/sample and 6,59 pmol/sample and 5,14 pmol/sample | Cer24 (HeLa cells [1]; 2.5 µM): 19,23 pmol/sample and 20,44 pmol/sample and 16,88 pmol/sample | Cer24:1 (HeLa cells [1]; 2.5 µM): 39,53 pmol/sample and 38,37 pmol/sample and 33,82 pmol/sample | Cer total (HeLa cells [1]; 2.5 µM): 103,73 pmol/sample and 103,08 pmol/sample and 87,70 pmol/sample | S1P (HeLa cells [1]; 2.5 µM): 1,23 pmol/sample and 1,05 pmol/sample and 1,02 pmol/sample | SM16 (HeLa cells [1]; 2.5 µM): 1702,42 pmol/sample and 1763,99 pmol/sample and 1597,48 pmol/sample | SM18 (HeLa cells [1]; 2.5 µM): 47,65 pmol/sample and 51,14 pmol/sample and 44,81 pmol/sample | SM20 (HeLa cells [1]; 2.5 µM): 15,77 pmol/sample and 16,69 pmol/sample and 14,30 pmol/sample | SM22 (HeLa cells [1]; 2.5 µM): 97,64 pmol/sample and 104,36 pmol/sample and 90,89 pmol/sample | SM24 (HeLa cells [1]; 2.5 µM): 148,54 pmol/sample and 158,37 pmol/sample and 140,98 pmol/sample | SM24:1 (HeLa cells [1]; 2.5 µM): 659,70 pmol/sample and 706,74 pmol/sample and 726,62 pmol/sample | SM total (HeLa cells [1]; 2.5 µM): 2548,15 pmol/sample and 2718,76 pmol/sample and 2821,17 pmol/sample | Sph (HeLa cells [1]; 2.5 µM): 4,57 pmol/sample and 3,32 pmol/sample and 3,82 pmol/sample | ratio total SM/Cer (HeLa cells [1]; 2.5 µM): 29,1 and 26,2 and 27,4 | Cer16 (HeLa cells [1]; 5 µM): 29,49 pmol/sample and 35,89 pmol/sample and 33,40 pmol/sample | Cer18 (HeLa cells [1]; 5 µM): 2,38 pmol/sample and 3,05 pmol/sample and 2,58 pmol/sample | Cer20 (HeLa cells [1]; 5 µM): 0,79 pmol/sample and 0,94 pmol/sample and 0,73 pmol/sample | Cer22 (HeLa cells [1]; 5 µM): 4,97 pmol/sample and 6,52 pmol/sample and 6,08 pmol/sample | Cer24 (HeLa cells [1]; 5 µM): 18,36 pmol/sample and 21,85 pmol/sample and 21,93 pmol/sample | Cer24:1 (HeLa cells [1]; 5 µM): 34,90 pmol/sample and 40,79 pmol/sample and 38,77 pmol/sample | Cer total (HeLa cells [1]; 5 µM): 90,90 pmol/sample and 109,04 pmol/sample and 103,49 pmol/sample | S1P (HeLa cells [1]; 5 µM): 0,97 pmol/sample and 0,93 pmol/sample and 0,94 pmol/sample | SM16 (HeLa cells [1]; 5 µM): 1510,97 pmol/sample and 1730,88 pmol/sample and 1785,73 pmol/sample | SM18 (HeLa cells [1]; 5 µM): 45,08 pmol/sample and 52,99 pmol/sample and 49,27 pmol/sample | SM20 (HeLa cells [1]; 5 µM): 14,34 pmol/sample and 17,35 pmol/sample and 16,52 pmol/sample | SM22 (HeLa cells [1]; 5 µM): 86,79 pmol/sample and 107,23 pmol/sample and 102,55 pmol/sample | SM24 (HeLa cells [1]; 5 µM): 143,47 pmol/sample and 171,51 pmol/sample and 164,74 pmol/sample | SM24:1 (HeLa cells [1]; 5 µM): 606,54 pmol/sample and 703,57 pmol/sample and 702,64 pmol/sample | SM total (HeLa cells [1]; 5 µM): 2407,20 pmol/sample and 2783,54 pmol/sample and 2821,45 pmol/sample | Sph (HeLa cells [1]; 5 µM): 3,92 pmol/sample and 3,79 pmol/sample and 3,72 pmol/sample | ratio total SM/Cer (HeLa cells [1]; 5 µM): 26,5 and 25,5 and 27,3 | effect on intracellular distribution of BODIPY-Cer (HeLa cells [2]): only minor effects
